In patent US20060270862A1, “Analogs of discodermolide and dictyostatin-1, intermediates therefor and methods of synthesis thereof” (priority 2002, published 2006):
Where two headings read alike, the source gives them in different places.

Tests used:
[1] = test system: MDA-MB231 (breast); assay: Cell growth inhibition (MTS), MDA-MB231; assay type: cell-based, human; conditions: Homo sapiens, MDA-MB-231, 72 h
Experimental: (§1) Cell Growth Inhibition[34] Cells were plated (500-2000 cells/well depending on the cell line) in 96-well microplates, allowed to attach and grow for 48 h, then treated with vehicle (4% DMSO, a concentration that allowed doubling times of 24 h or less) or test agent (50, 10, 2, 0.4 and 0.08 μM for the new agents; 0.001, 0.005, 0.010, 0.020 and 0.100 μM for paclitaxel and discodermolide) for the given times. One plate consisted of cells from each line used for a time zero cell number determination. The other plates in a given determination contained eight wells of control cells, eight wells of medium and each agent concentration tested in quadruplicate. Cell numbers were obtained spectrophotometrically (absorbance at 490 nm minus that at 630 nm) in a Dynamax plate reader after treatment with 3-(4,5-dimethylthiazol-2-yl)-5-(3-carboxymethoxyphenyl)-2-(4-sulfophenyl)-2H-tetrazolium (MTS) using phenazine methanesulfonate as the electron acceptor. After initial screening with the above 5-fold dilutions, fifty percent growth inhibitory concentration (GI50) values were determined for each agent by repeating the screen using 2-fold dilutions (five concentrations) centered on the initial estimated GI50 concentration, again in quadruplicate.

[2] = test system: 2008 (ovarian); assay: Cell growth inhibition (MTS), 2008; assay type: cell-based, human; conditions: Homo sapiens, 72 h
Experimental: as §1

[3] = test system: PC3 (prostate); assay: Cell growth inhibition (MTS), PC3; assay type: cell-based; conditions: Homo sapiens, 72 h, read-out: GI50 PC3 (prostate)
Experimental: as §1

[4] = test system: tubulin; assay type: biochemical, bovine; conditions: for MT stabilizing activity (%): tubulin assembly induced by test agent at 10 μM vs. 10 μM paclitaxel (100%), single determinations at 30° C.
Experimental: (§2) General. Tubulin without microtubule-associated proteins was prepared from fresh bovine brains[32] The normoisotopic and tritiated forms of paclitaxel and normoisotopic docetaxel were provided by the Drug Synthesis and Chemistry Branch, National Cancer Institute. (+)-Discodermolide was from Novartis Pharmaceutical Corporation. Ca^2+- and Mg^2+-free RPMI-1640 culture medium were from GIBCO/BRL-Life Technologies. Fetal bovine serum (FBS) was from Hyclone. Cell lines were obtained from American Type Culture Collection (Manassas, Va.).
Tubulin Polymerization[32] Tubulin assembly was followed in a Beckman-Coulter 7400 spectrophotometer, equipped with an electronic Peltier temperature controller, reading absorbance (turbidity) at 350 nm. Reaction mixtures (0.25 mL final volume) contained tubulin (final concentration 10 μM; 1 mg/mL), monosodium glutamate (0.8 M from a stock solution adjusted to pH 6.6 with HCl), DMSO (final volume 4% v/v), and differing concentrations of test agent where indicated. Reaction mixtures without test agent were cooled to 0° C. and added to cuvettes held at 0.25-0.5° C. in the spectrophotometer. Test agent in DMSO was then rapidly mixed in the reaction mixture. Each run contained one positive control (paclitaxel, 10 μM final concentration) and one negative control (DMSO only). Baselines were established at 0.25-2.5° C. and temperature was rapidly raised to 30° C. (in approximately 1 min) and held there for 20 min.

[5] = test system: paclitaxel binding site on tubulin; assay: Paclitaxel binding site inhibition assay ([3H]paclitaxel displacement from microtubules); parameters: species or system bovine; conditions: 4 μM test agent, 2 μM [3H]paclitaxel, microtubules from 2 μM tubulin and 20 μM dideoxyGTP
Experimental: as §2
Paclitaxel binding site inhibition assay. A stock solution of [^3H]paclitaxel (26.8 μM, 16.2 Ci/mmol), obtained from the NCI, was prepared in 37% (v/v) DMSO. The test agents were prepared in 25% (v/v) DMSO-0.75 M monosodium glutamate (prepared from a 2M stock solution adjusted to pH 6.6 with HCl). The radiolabeled paclitaxel and test agents, as indicated in terms of final concentrations, were mixed in equal volumes and warmed to 37° C. A reaction mixture (50 μL) containing 0.75 M monosodium glutamate, 4.0 μM tubulin, and 40 μM ddGTP (a non-hydrolyzable analog of GTP) was prepared and incubated at 37° C. for 30 min to preform microtubules. An equivalent volume of drug mixture with [^3H]paclitaxel was added to preformed polymer and incubated for 30 min at 37° C. Bound [^3H]paclitaxel was separated from free drug by centrifugation of the reaction mixtures at 14000 rpm for 20 min at room temperature. Non-specific binding was determined by addition of a 12-fold excess of docetaxel. Radioactive counts from the supernatant (50 μL) were determined by scintillation spectrometry. Bound [^3H]paclitaxel was calculated from the following: total paclitaxel added to each reaction mixture minus the paclitaxel present in the supernatant (free drug). The % bound values were normalized to the control values with no inhibitor added.

[6] = read-out: GI50 MDA-MB231 (breast)

SMILES | GI50 [1, 6] | GI50 ([1]; read-out: GI50 MDA-MB-231 (breast)) | GI50 ([2]; read-out: GI50 2008 (ovarian)) | GI50 ([2]; read-out: GI50 2008 (ovary)) | GI50 [3] | microtubule assembly compared with paclitaxel (in words) ([4]; FIG. 6A, equivalent assembly at lower concentrations and temperatures) | properties of the induced polymer: speed of induction, resistance to cold-induced disassembly (in words) ([4]; FIGS. 6A, 6C, 6D, analogs at somewhat lower potencies than discodermolide) | MT stabilizing activity (%) [4] | Displacement of [3H]paclitaxel (%) [5] | Displacement of [3H]paclitaxel (%) ([5]; N = 6, means ± SD)
C=C/C=C\[C@H](C)[C@H](OC(N)=O)[C@@H](C)[C@H](O)[C@@H](C)C/C(C)=C\[C@H](C)[C@@H](O)[C@@H](C)/C=C\[C@@H](O)C[C@@H]1OC(=O)[C@H](C)[C@@H](O)[C@H]1C [discodermolide, (+)-discodermolide] | 16 ± 3 nM | 16 ± 3 nM | 72 ± 5 nM | 72 ± 5 nM | 67 ± 4 nM | superior to paclitaxel | more resistant to cold-induced disassembly | >100% | 64 ± 2% | 64 ± 2%
C=C/C=C\[C@H](C)[C@H](OC(N)=O)[C@@H](C)[C@H](O)CC/C=C\[C@H](C)[C@H](O)[C@@H](C)/C=C\CC[C@@H]1OC(=O)[C@H](C)[C@@H](O)[C@@H]1C [Compound 40, Carbamic acid, (1S,2S,3R,6Z,8S,9S,10S,11Z)-3,9-dihydroxy-14-[(2S,3S,4S,5R)-4-hydroxy-3,5-dimethyl-6-oxotetrahydropyran-2-yl]-2,8,10-trimethyl-1-[(1S,2Z)-1-methylpenta-2,4-dienyl]tetradeca-6,11-dienyl ester] | 2100 ± 1800 nM |  | 5200 ± 1000 nM |  | 7500 ± 2000 nM |  |  | 11% | 21 ± 1% | 
